Test results published in patent US11976072B2, “Diacylglycerol kinase modulating compounds” (priority 2021, dated 2024).

Columns and labels:
[1] = tested on: Jurkat NFκB-luciferase cells; assay: Jurkat NFκB-Luciferase Assay; type: cell-based; details: Homo sapiens; Jurkat NFκB-luciferase cells activated with anti-CD3 antibody (OKT3), 2.5 hrs at 37° C.; geometric mean; read-out: DGK NFKb Luciferase EC50
Experimental: The day after, the excess antibody was washed out five times with 100 ul/well of assay medium (RPMI supplemented with 10% fetal bovine serum) using a Biotek EL406 instrument and leaving 20 ul of residual volume in each well. Jurkat NFκB-luciferase cells (Promega #) were harvested and diluted to 1 million cells/ml in assay medium. […] Thirty microliters of medium containing the Jurkat NFκB-luciferase cells were then dispensed using a Biotek MicroFlo instrument in each well of the compound-containing plate. […] Forty microliters of One-Glo Ex (Promega) was then added to the assay mixture and luciferase activity was read on a Envision plate reader 7 minutes later.

human DGKα = human DGKα (Homo sapiens, UniProt P23743); assay: DGKα Biochemical Activity Assay (ADP-Glo); details: recombinant DGKα 1 nM, 100 μM ATP, 18:1 DAG/POPS/octylglucoside micelles, 1 hour at 25° C.; geometric mean; read-out: HTBS DGKa 1X ATP KM IC50;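 note: luminescent detection of ADP produced as DGKα phosphorylates DAG to phosphatidic acid, IC50 from four-parameter nonlinear curve fit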
Sequence of human DGKα (P23743 whole entry): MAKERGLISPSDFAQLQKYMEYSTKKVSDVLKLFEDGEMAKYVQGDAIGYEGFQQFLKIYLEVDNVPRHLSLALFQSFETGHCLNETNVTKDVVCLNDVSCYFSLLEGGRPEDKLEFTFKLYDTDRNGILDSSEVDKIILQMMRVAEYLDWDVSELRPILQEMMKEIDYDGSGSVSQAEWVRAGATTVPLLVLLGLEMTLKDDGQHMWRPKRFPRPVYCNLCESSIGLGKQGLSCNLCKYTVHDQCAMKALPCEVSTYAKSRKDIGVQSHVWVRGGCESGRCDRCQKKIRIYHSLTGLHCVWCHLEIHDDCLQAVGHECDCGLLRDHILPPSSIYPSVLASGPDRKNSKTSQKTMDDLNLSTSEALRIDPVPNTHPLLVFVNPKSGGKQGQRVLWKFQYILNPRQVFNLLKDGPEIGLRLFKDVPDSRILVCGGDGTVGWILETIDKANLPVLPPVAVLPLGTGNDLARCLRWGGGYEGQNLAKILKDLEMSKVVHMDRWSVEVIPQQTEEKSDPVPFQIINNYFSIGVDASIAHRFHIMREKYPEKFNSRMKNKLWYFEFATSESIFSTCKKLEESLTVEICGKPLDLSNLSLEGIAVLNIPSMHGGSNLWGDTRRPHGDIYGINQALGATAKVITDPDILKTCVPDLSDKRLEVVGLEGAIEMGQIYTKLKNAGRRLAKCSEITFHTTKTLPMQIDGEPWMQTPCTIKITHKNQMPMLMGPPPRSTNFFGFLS
Description: Alternatively, the enzymatic activity of human DGKα was monitored in a biochemical assay in the presence or absence of compounds and using micelles containing 18:1 Diacylglycerol (DAG), 16:0-18:1 PS (POPS) and Octylglucoside as substrate. DGKα activity led to conversion of DAG and ATP to Phosphatidic Acid (PA) and ADP. Levels of ADP were monitored by bioluminescence using the ADP-Glo Kinase Assay (Promega) and were indicative of DGKα activity.
Recombinant DGKα (Carna Biosciences) in assay buffer (5 μL in 50 mM MOPS [3-(N-morpholino) propanesulfonic acid], pH 7.2; 0.0025% Triton X-100; 1 mM dithiothreitol; 5 mM MgCl2, 200 μM ATP) was added to the compound-containing plate and was incubated for 15 minutes at 25° C. […] The reaction mixture was incubated at 25° C. for 1 hour. ADP-Glo Reagent (10 μL, 10 mM Mg added) provided by the kit was added to each well and incubated at 25° C. for 40 minutes. Then, 20 μL of Kinase Detection Reagent was added and incubated at 25° C. for 40 minutes. Luciferase activity of each well was measured via luminescence on an Envision plate reader (PerkinElmer).
Least squares curve fittings were performed using a four-parameter variable slope nonlinear regression model. […] IC50 values from multiple experiments were averaged by geometric mean and the standard deviation was calculated.

| Structure (SMILES) | EC50 [1] [nM] | IC50 (human DGKα) [nM] |
| --- | --- | --- |
| Cc1nnc2nc(N3CCCCc4c(C#CC5CC5)cncc43)c3c(F)c(F)ccc3n12 [Example 1, 5-(6-(cyclopropylethynyl)-2,3,4,5-tetrahydro-1H-pyrido[3,4-b]azepin-1-yl)-6,7-difluoro-1-methyl-[1,2,4]triazolo[4,3-a]quinazoline] | 0.897 | 15.1 |
| Cc1nnc2nc(N3CCCCc4c(C#CC(C)(C)C#N)cncc43)c3c(F)c(F)ccc3n12 [Example 2, 4-(1-(6,7-difluoro-1-methyl-[1,2,4]triazolo[4,3-a]quinazolin-5-yl)-2,3,4,5-tetrahydro-1H-pyrido[3,4-b]azepin-6-yl)-2,2-dimethylbut-3-ynenitrile] | 3.13 | 14.8 |
| Cc1nnc2nc(N3CCCCc4c(C#CC5(C(F)(F)F)CC5)cncc43)c3cc(F)ccc3n12 [Example 3, 7-fluoro-1-methyl-5-(6-((1-(trifluoromethyl)cyclopropyl)ethynyl)-2,3,4,5-tetrahydro-1H-pyrido[3,4-b]azepin-1-yl)-[1,2,4]triazolo[4,3-a]quinazoline] | 1.86 | 35.9 |
| Cc1nnc2nc(N3CCCCc4c(C#CC(C)(C)C#N)cncc43)c3cc(F)ccc3n12 [Example 4, 4-(1-(7-fluoro-1-methyl-[1,2,4]triazolo[4,3-a]quinazolin-5-yl)-2,3,4,5-tetrahydro-1H-pyrido[3,4-b]azepin-6-yl)-2,2-dimethylbut-3-ynenitrile] | 6.92 | 23.9 |
| Cc1nnc2nc(N3CCCCc4c(C#CC5(C)CC5)cncc43)c3cc(F)ccc3n12 [Example 5, 7-fluoro-1-methyl-5-(6-((1-methylcyclopropyl)ethynyl)-2,3,4,5-tetrahydro-1H-pyrido[3,4-b]azepin-1-yl)-[1,2,4]triazolo[4,3-a]quinazoline] | 1.19 | 14.5 |
| Cc1nnc2nc(N3CCCCc4c(C#CC5(C)CC5)cncc43)c3c(F)cccc3n12 [Example 6, 6-fluoro-1-methyl-5-(6-((1-methylcyclopropyl)ethynyl)-2,3,4,5-tetrahydro-1H-pyrido[3,4-b]azepin-1-yl)-[1,2,4]triazolo[4,3-a]quinazoline] | 0.692 | 44.1 |
| Cc1nnc2nc(N3CCCCc4c(C#CC5(C)CC5)cncc43)c3c(F)c(F)ccc3n12 [Example 7, 6,7-difluoro-1-methyl-5-(6-((1-methylcyclopropyl)ethynyl)-2,3,4,5-tetrahydro-1H-pyrido[3,4-b]azepin-1-yl)-[1,2,4]triazolo[4,3-a]quinazoline] | 0.747 | 23.1 |
| Cc1nnc2nc(N3CCCCc4c(C#CC5(C(F)F)CC5)cncc43)c3c(F)c(F)ccc3n12 [Example 8, 5-(6-((1-(difluoromethyl)cyclopropyl)ethynyl)-2,3,4,5-tetrahydro-1H-pyrido[3,4-b]azepin-1-yl)-6,7-difluoro-1-methyl-[1,2,4]triazolo[4,3-a]quinazoline] | 1.65 | 17.7 |
| Cc1nnc2nc(N3CCCCc4c(C#CC5(C(F)(F)F)CC5)cncc43)c3c(F)c(F)ccc3n12 [Example 9, 6,7-difluoro-1-methyl-5-(6-((1-(trifluoromethyl)cyclopropyl)ethynyl)-2,3,4,5-tetrahydro-1H-pyrido[3,4-b]azepin-1-yl)-[1,2,4]triazolo[4,3-a]quinazoline] | 1.53 | 28.5 |
| Cc1nnc2nc(N3CCCc4c(C#CC(C)(C)C#N)cncc43)c3c(F)c(F)ccc3n12 [Example 10, 4-(1-(6,7-difluoro-1-methyl-[1,2,4]triazolo[4,3-a]quinazolin-5-yl)-1,2,3,4-tetrahydro-1,7-naphthyridin-5-yl)-2,2-dimethylbut-3-ynenitrile] | 5.87 | 17.2 |
| Cc1nnc2nc(N3CCCc4c(C#CC5(C(F)F)CC5)cncc43)c3c(F)c(F)ccc3n12 [Example 11, 5-(5-((1-(difluoromethyl)cyclopropyl)ethynyl)-3,4-dihydro-1,7-naphthyridin-1(2H)-yl)-6,7-difluoro-1-methyl-[1,2,4]triazolo[4,3-a]quinazoline] | 5.77 | 13.9 |
| Cc1nnc2nc(N3CCCc4c(C#CC5(C(C)(F)F)CC5)cncc43)c3c(F)c(F)ccc3n12 [Example 12, 5-(5-((1-(1,1-difluoroethyl)cyclopropyl)ethynyl)-3,4-dihydro-1,7-naphthyridin-1(2H)-yl)-6,7-difluoro-1-methyl-[1,2,4]triazolo[4,3-a]quinazoline] | 1.85 | 37.3 |
| Fc1ccc2c(c(N3CCCc4c(C#CC5CCC5)cncc43)nc3nncn32)c1F [Example 13, 5-(5-(cyclobutylethynyl)-3,4-dihydro-1,7-naphthyridin-1(2H)-yl)-6,7-difluoro-[1,2,4]triazolo[4,3-a]quinazoline] | 1.01 | 7.93 |
| Fc1ccc2c(c(N3CCCc4c(C#CC5CC(F)(F)C5)cncc43)nc3nncn32)c1F [Example 14, 5-(5-((3,3-difluorocyclobutyl)ethynyl)-3,4-dihydro-1,7-naphthyridin-1(2H)-yl)-6,7-difluoro-[1,2,4]triazolo[4,3-a]quinazoline] | 1.4 | 8.19 |
| Fc1ccc2c(c(N3CCCc4c(C#CC5(C(F)F)CC5)cncc43)nc3nncn32)c1F [Example 15, 5-(5-((1-(difluoromethyl)cyclopropyl)ethynyl)-3,4-dihydro-1,7-naphthyridin-1(2H)-yl)-6,7-difluoro-[1,2,4]triazolo[4,3-a]quinazoline] | 1.91 | 7.16 |
| CC(F)(F)C1(C#Cc2cncc3c2CCCN3c2nc3nncn3c3ccc(F)c(F)c23)CC1 [Example 16, 5-(5-((1-(1,1-difluoroethyl)cyclopropyl)ethynyl)-3,4-dihydro-1,7-naphthyridin-1(2H)-yl)-6,7-difluoro-[1,2,4]triazolo[4,3-a]quinazoline] | 1.54 | 22.7 |
| Fc1cccc2c1c(N1CCCc3c(C#CC4CC(F)(F)C4)cncc31)nc1nncn12 [Example 17, 5-(5-((3,3-difluorocyclobutyl)ethynyl)-3,4-dihydro-1,7-naphthyridin-1(2H)-yl)-6-fluoro-[1,2,4]triazolo[4,3-a]quinazoline] | 1.16 | 14.7 |
| Fc1cccc2c1c(N1CCCc3c(C#CC4CCC4)cncc31)nc1nncn12 [Example 18, 5-(5-(cyclobutylethynyl)-3,4-dihydro-1,7-naphthyridin-1(2H)-yl)-6-fluoro-[1,2,4]triazolo[4,3-a]quinazoline] | 1.5 | 14.2 |
| Fc1cccc2c1c(N1CCCc3c(C#CC4(C(F)F)CC4)cncc31)nc1nncn12 [Example 19, 5-(5-((1-(difluoromethyl)cyclopropyl)ethynyl)-3,4-dihydro-1,7-naphthyridin-1(2H)-yl)-6-fluoro-[1,2,4]triazolo[4,3-a]quinazoline] | 1.53 | 21.3 |
| Cc1nnc2nc(N(CC(F)F)c3cc(F)cc(C#CC4CCOCC4)c3)c3c(F)cccc3n12 [Example 20, N-(2,2-difluoroethyl)-6-fluoro-N-(3-fluoro-5-((tetrahydro-2H-pyran-4-yl)ethynyl)phenyl)-1-methyl-[1,2,4]triazolo[4,3-a]quinazolin-5-amine] | 10.3 | 30.1 |
| Cc1nnc2nc(N(CC(F)F)c3cc(F)cc(C#CC4(O)CCC4)c3)c3c(F)cccc3n12 [Example 21, 1-((3-((2,2-difluoroethyl)(6-fluoro-1-methyl-[1,2,4]triazolo[4,3-a]quinazolin-5-yl)amino)-5-fluorophenyl)ethynyl)cyclobutan-1-ol] | 9.42 | 21 |
| Cc1nnc2nc(N(CC(F)F)c3cc(F)cc(C#CC4(C)COC4)c3)c3c(F)cccc3n12 [Example 22, N-(2,2-difluoroethyl)-6-fluoro-N-(3-fluoro-5-((3-methyloxetan-3-yl)ethynyl)phenyl)-1-methyl-[1,2,4]triazolo[4,3-a]quinazolin-5-amine] | 10.1 | 18.9 |
| Cc1nnc2nc(N(CC(F)F)c3cc(F)cc(C#CC4COC4)c3)c3c(F)cccc3n12 [Example 23, N-(2,2-difluoroethyl)-6-fluoro-N-(3-fluoro-5-(oxetan-3-ylethynyl)phenyl)-1-methyl-[1,2,4]triazolo[4,3-a]quinazolin-5-amine] | 3.46 | 33.9 |
| Cc1nnc2nc(N(CC(F)F)c3cc(F)cc(C#CC4(C)COC4)c3)c3cc(F)ccc3n12 [Example 24, N-(2,2-difluoroethyl)-7-fluoro-N-(3-fluoro-5-((3-methyloxetan-3-yl)ethynyl)phenyl)-1-methyl-[1,2,4]triazolo[4,3-a]quinazolin-5-amine] | 4.7 | 15.1 |
| Cc1nnc2nc(N(CC(F)F)c3cc(F)cc(C#CC4(C(F)F)CC4)c3)c3c(F)cccc3n12 [Example 25, N-(2,2-difluoroethyl)-N-(3-((1-(difluoromethyl)cyclopropyl)ethynyl)-5-fluorophenyl)-6-fluoro-1-methyl-[1,2,4]triazolo[4,3-a]quinazolin-5-amine] | 7.37 | 30.2 |
| Cc1nnc2nc(N3CCCc4c(C#CC5CCOCC5)cccc43)c3c(F)cccc3n12 [Example 26, 6-fluoro-1-methyl-5-(5-((tetrahydro-2H-pyran-4-yl)ethynyl)-3,4-dihydroquinolin-1(2H)-yl)-[1,2,4]triazolo[4,3-a]quinazoline] | 2.46 | 22.5 |
| Cc1nnc2nc(N3CCCc4c(C#CC5(C)COC5)cccc43)c3c(F)cccc3n12 [Example 27, 6-fluoro-1-methyl-5-(5-((3-methyloxetan-3-yl)ethynyl)-3,4-dihydroquinolin-1(2H)-yl)-[1,2,4]triazolo[4,3-a]quinazoline] | 3.52 | 15.1 |
